Measurements published in patent publication US20240043408A1, “CRYSTAL FORM OF FIBROBLAST GROWTH FACTOR RECEPTOR INHIBITOR AND PREPARATION METHOD THEREFOR” (Transthera Sciences (Nanjing), Inc., priority 2020, published 2024).
Where two headings read alike, the source gives them in different places.

How the values were obtained:
[1] = system: SNU-16 cells; assay: Cell viability assay (Cell titer-Glo, 72 h); format: cell-based; settings: for IC50: SNU-16 gastric cancer cells with FGFR abnormalities, 72 h, Cell titer-Glo, read-out: Inhibitory activity (nM) on SNU-16 cells (IC50)
Experimental: SNU-16 is a gastric cancer cell with FGFR abnormalities.
Instrument: Espire multi-functional microplate reader
SNU-16 cells were seeded in a 96-well plate for adherent culture overnight, and then compounds at different concentrations (12 dose groups, serial 3-fold dilution with DMSO) were added to give final concentrations of 0.17-30000 nM, wherein the final DMSO content was 5%. Negative control wells contained a 5% DMSO medium. The plate was incubated at 37° C., 5% CO2 and 95% humidity for 72 h for later test. 30 μL of Cell titer-Glo reagent was added to each well, and after the plate was incubated at room temperature for 30 min, the final data were read by Espire.

[2] = Stability test of amorphous form and crystal form I at 105° C. and 60° C.; format: physicochemical
Experimental: The “destructive impurity” described herein refers to an additional peak in a liquid chromatogram of a sample in a stability test compared with the liquid chromatogram of the sample on day 0.
The bottles were let stand at 105° C. (samples were taken on days 3, 5 and 10) and at 60° C. (samples were taken on days 10, 20 and 30). The taken samples were investigated for changes in appearance, related substances and form.
Proper amounts of amorphous form samples of the compound (I) were placed into weighing bottles. The bottles were let stand at 105° C. (samples were taken on days 3, 5 and 10) and at 60° C. (samples were taken on days 10, 20 and 30). The taken samples were investigated for changes in appearance, related substances.

[3] = Stability test of crystal form I under influencing factors (60° C., RH 92.5%, RH 75%, illumination); format: physicochemical
Description: Samples were taken on days 0, 4 and 10, and investigated for changes in properties and purity.

[4] = 60° C., Day 10, additional HPLC peaks vs day 0
[5] = Illumination (≥4500±500 Lux), Day 4
[6] = Illumination (≥4500±500 Lux), Day 10

Structure (SMILES): C=CC(=O)N1C[C@@H](Nc2ncc3cc(-c4c(Cl)c(OC)cc(OC)c4Cl)ccc3n2)C[C@H]1CO [Amorphous form, 1-((2S,4S)-4-((6-(2,6-dichloro-3,5-dimethoxyphenyl)quinazolin-2-yl)amino)-2-(hydroxymethyl)pyrrolidin-1-yl)prop-2-en-1-one]
- IC50 ([1]; Homo sapiens, SNU-16, 72 h): 11 nM
- Appearance ([2]; 60° C., Day 10): Pale yellow powder
- Related substances (%) ([2]; 60° C., Day 10): 0.73%
- Destructive impurity (%) [2, 4]: 0.06%
- Appearance ([2]; 60° C., Day 20): Pale yellow powder
- Related substances (%) ([2]; 60° C., Day 20): 0.72%
- Appearance ([2]; 60° C., Day 30): Pale yellow powder
- Related substances (%) ([2]; 60° C., Day 30): 0.75%
- Appearance ([2]; 105° C., Day 3): Pale yellow powder
- Related substances (%) ([2]; 105° C., Day 3): 1.3%
- Appearance ([2]; 105° C., Day 5): Pale yellow powder
- Related substances (%) ([2]; 105° C., Day 5): 1.6%
- Appearance ([2]; 105° C., Day 10): Pale yellow powder
- Related substances (%) ([2]; 105° C., Day 10): 2.5%
- Appearance ([2]; Day 0): Pale yellow powder
- Destructive impurity (%) ([2]; Day 0): None
- Related substances (%) ([2]; Day 0): 0.62%
- Number of destructive impurities detected (HPLC) ([2]; stored at 60° C. for 30 days): 2
- Number of destructive impurities detected (HPLC) ([2]; stored at 105° C. for 10 days): 7

Structure (SMILES): C=CC(=O)N1C[C@@H](Nc2ncc3cc(-c4c(Cl)c(OC)cc(OC)c4Cl)ccc3n2)C[C@H]1CO [Crystal form I, 1-((2S,4S)-4-((6-(2,6-dichloro-3,5-dimethoxyphenyl)quinazolin-2-yl)amino)-2-(hydroxymethyl)pyrrolidin-1-yl)prop-2-en-1-one]
- Inhibitory activity on SNU-16 cells (in words) ([1]; SNU-16 cells with FGFR abnormalities): good inhibitory activity
- IC50 [1]: 9.5 nM
- Appearance ([3]; 60° C., Day 4, open bottle): Off-white powder
- Purity % ([3]; 60° C., Day 4, open bottle): 99.6%
- Appearance ([3]; 60° C., Day 10, open bottle): Off-white powder
- Purity % ([3]; 60° C., Day 10, open bottle): 99.6%
- Appearance ([3]; 75% RH, Day 4, open bottle): Off-white powder
- Purity % ([3]; 75% RH, Day 4, open bottle): 99.6%
- Appearance ([3]; 75% RH, Day 10, open bottle): Off-white powder
- Purity % ([3]; 75% RH, Day 10, open bottle): 99.6%
- Appearance ([3]; 92.5% RH, Day 4, open bottle): Off-white powder
- Purity % ([3]; 92.5% RH, Day 4, open bottle): 99.6%
- Appearance ([3]; 92.5% RH, Day 10, open bottle): Off-white powder
- Purity % ([3]; 92.5% RH, Day 10, open bottle): 99.6%
- Appearance ([3]; Day 0): Off-white powder
- Purity % ([3]; Day 0): 99.6%
- Appearance [3, 5]: Off-white powder
- Purity % [3, 5]: 99.6%
- Appearance [3, 6]: Pale yellow powder
- Purity % [3, 6]: 99.5%
- Change of appearance and purity ([3]; after 10 days in various influencing factor conditions): did not change significantly
- Appearance ([2]; 60° C., Day 10): Off-white powder
- Form (XRPD) ([2]; 60° C., Day 10): Crystal form I
- Related substances (%) ([2]; 60° C., Day 10): 0.64%
- Destructive impurity (%) [2, 4]: Undetectable
- Appearance ([2]; 60° C., Day 20): Off-white powder
- Form (XRPD) ([2]; 60° C., Day 20): Crystal form I
- Related substances (%) ([2]; 60° C., Day 20): 0.64%
- Destructive impurity (%) ([2]; 60° C., Day 20, additional HPLC peaks vs day 0): Undetectable
- Appearance ([2]; 60° C., Day 30): Off-white powder
- Form (XRPD) ([2]; 60° C., Day 30): Crystal form I
- Related substances (%) ([2]; 60° C., Day 30): 0.68%
- Destructive impurity (%) ([2]; 60° C., Day 30, additional HPLC peaks vs day 0): Undetectable
- Appearance ([2]; 105° C., Day 3): Off-white powder
- Form (XRPD) ([2]; 105° C., Day 3): Crystal form I
- Related substances (%) ([2]; 105° C., Day 3): 0.62%
- Destructive impurity (%) ([2]; 105° C., Day 3, additional HPLC peaks vs day 0): Undetectable
- Appearance ([2]; 105° C., Day 5): Off-white powder
- Form (XRPD) ([2]; 105° C., Day 5): Crystal form I
- Related substances (%) ([2]; 105° C., Day 5): 0.60%
- Destructive impurity (%) ([2]; 105° C., Day 5, additional HPLC peaks vs day 0): Undetectable
- Appearance ([2]; 105° C., Day 10): Off-white powder
- Form (XRPD) ([2]; 105° C., Day 10): Crystal form I
- Related substances (%) ([2]; 105° C., Day 10): 0.63%
- Destructive impurity (%) ([2]; 105° C., Day 10, additional HPLC peaks vs day 0): Undetectable
- Appearance ([2]; Day 0): Off-white powder
- Destructive impurity (%) ([2]; Day 0): None
- Form (XRPD) ([2]; Day 0): Crystal form I
- Related substances (%) ([2]; Day 0): 0.64%
- Change of appearance, related substances and form ([2]; after storage at 105° C. for 10 days and at 60° C. for 30 days): did not change significantly
